Results as given in patent US20250144187A1, “COMBINATION OF HYDROLASES AND ANTI-MICROORGANISM DRUGS AND USES THEREOF” (CENTRE FOR EYE AND VISION RESEARCH LIMITED, priority 2023, published 2025).

What was measured:
MRSE = assay: High-throughput screening of 1953 FDA-approved compounds with human lysozyme; assay type: cell-based, Staphylococcus epidermis; conditions: compound 25 μM + 1 mg/ml lysozyme, 24-hour
Description: 1) High-throughput screening. According to standard screening method [Zhong. […] Commun. 11, 523 (2020)], 1953 FDA-approved compounds from our drugs library at a fixed concentrations of 25 μM were screened against methicillin-resistant Staphylococcus aureus (MRSA) and Staphylococcus epidermis (a coagulase negative Staphylococci, MRSE), in combination with human lysozyme. Specifically, these compounds were added into bacterial suspensions (1×10^5 CFU/ml, in LB medium) in the absence or presence of 1 mg/ml lysozyme. LB medium without bacteria served as background group. Then, the real-time growth curvet of MRSA were monitored per hour and for 24 hours. Absorbance at 600 am (OD600) of bacterial culture at the time point of 24-hour was also measured. The inhibition ratio (%) was calculated as (ODcontrol−ODsample)/(ODcontrol−ODbackground)×100%. […] Herein, the relative and apparent inhibition ratios indicated the combination effect and potential toxicity of compound, respectively. Synergy effect was defined as the relative inhibition ratio of ≥90%. All assays were performed in triplicate.

MRSA [1] = assay: Time-killing curves, tedizolid phosphate/lysozyme; assay type: cell-based, Staphylococcus aureus; conditions: tedizolid phosphate + 0.5 mg/ml lysozyme, after 22 hours; dropping from the level of 10^12
Description: 3) Time-killing curves. According to standard method [Sun. H et al., Nat. Commun. 11, 5263 (2020); Thappeta, K. R. V., Vikke. Y. S., Yong. A. M. H., Chan-Park. M. B. Kline, K. A. Combined efficacy of an antimicrobial cationic peptide polymer with conventional antibiotics to combat multidrug-resistant pathogens. ACS Infect. Dis. 6, 1229-1237 (2020)], over-night cultured MRSA was diluted and aliquoted into new sterile 50 ml tubes at 1:1000 ratio. Then, the bacterial suspension was co-cultured with 0.25 or 0.5 μg/ml tedizolid phosphate, 0.5 mg/ml lysozyme or their combination at 37° C. with shaking at 50 rpm. Similar bacterial suspension without any additions served as control group. To measure their real bacterial loads to draw their kinetic time-killing curves, 20 μl of each culture was extracted at time intervals of 0, 1, 3, 6, 9, 12 and 22 hours, and then 10 μl of each sample (10-fold serial dilution) was applied onto LB-agar plate and incubated at 37° C. for 24 hours. All assays were performed in triplicate.

MRSA [2] = assay: Antibiotics accumulation analysis (LC-MS/MS); assay type: cell-based, Staphylococcus aureus
Description: 11) Antibiotics accumulation analysis. The accumulation of antibiotics in MRSA was determined by LC-MS/MS analysis according to a previous report [Liu, Y et al., Adv. Sci. 7. 1902227 (2020); Ong, V et al., Drug Metab. Dispos, 4127 (2014); Richter, M. F et al., Nature 545, 299-304 (2017)]. Briefly, 1.0 ml of overnight culture of MRSA was diluted into […] of fresh LB medium and cultured at 37° C. with shaking at 250 rpm until when bacteria OD600 was about 0.4. Then, tedizolid phosphate (0.5 μg/ml) in combination with varying lysozyme (0, 0.25, 0.5 and 1.0 mg/ml) was added. After that, all samples were further cultured at 37° C. with shaking at 250 rpm for 0.5, 1.0, 2.0 or 4 hours, respectively. Then, all bacteria were pelleted by centrifuging at 13 000 g for 20 minutes. To lyse the bacteria, each pellet was dissolved in 400 μl of lysis buffer (150 mM NaCl, 1% Triton-X100, 1× proteinase inhibitor and 50 mM HEPES-Na, pH 8.0) and then subjected to sonication lysis, followed by three freeze-thaw cycles in liquid nitrogen. The lysates were pelleted at 13 000 g for 20 minutes and the supernatants were collected. All debris were re-suspended in 400 μl of methanol and pelleted as before, followed by 400 μl of acetonitrile treatment as before. These supernatants were combined with the previously collected supernatants, Residual debris was removed by centrifuging at 13 000 g for 20 minutes. Supernatants were analyzed by an Agilent 1260 Infinity HPLC system coupled to AD SCIEX QTRAP 6500 mass spectrometers (ABSciex, CA, USA). The liquid chromatography separation was performed on water HSS T3 column (2.1×100 mm, 3 μm) with mobile phase A (20 mM ammonium formate in water) and mobile phase B (methanol). The flow rate was […]. […] The quantification determination of antibiotic uptake was performed by multiple reaction monitoring (MRM) with negative electrospray ionization using the m/z 451 transition for tedizolid phosphate [Ong, V et al., Drug Metab. […]

MRSA in ARPE-19 cells = assay: Cell infection model, tedizolid phosphate/lysozyme

| Compound | Growth inhibition ratio (mean ± SD, %) MRSE (MRSE) [%] | bacterial load per ml culture (MRSA [1]) | increase in the level of intracellular tedizolid phosphate (MRSA [2]; after 4 hours, lysozyme (≤0.25 mg/ml) used in combination) [fold] | intracellular accumulation of tedizolid phosphate (MRSA [2]; combination therapy, 1 hour) | tedizolid phosphate alone needed to achieve the same intracellular accumulation (MRSA [2]; tedizolid phosphate alone, 1 hour) [µg/mL] | death of infected ARPE-19 cells (MRSA in ARPE-19 cells; 1.0 μg/ml tedizolid phosphate + 0.5 mg/ml lysozyme, MOI 10) | bacterial load in ARPE-19 cells (MRSA in ARPE-19 cells; ≥1.0 μg/ml tedizolid phosphate in the presence of 0.5 mg/ml lysozyme, reduced from 10^7) |
| --- | --- | --- | --- | --- | --- | --- | --- |
| C=CC1=C(C(=O)O)N2C(=O)[C@@H](NC(=O)/C(=N\O)c3csc(N)n3)[C@H]2SC1 [cefdinir, Cefdinir] | 20.31 ± 13.83 |  |  |  |  |  |  |
| Cn1nnc(-c2ccc(-c3ccc(N4C[C@H](COP(=O)(O)O)OC4=O)cc3F)cn2)n1 [tedizolid phosphate, Tedizolid Phosphate] |  | 10^6 colony forming units (CFUs) | 10 | ca. 100 μg/l | ≥ 4.5 | cell death was prevented | 10^4 CFU/ml |
